In PubChem BioAssay (NCI):
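All cell lines were grown in 96-well plates and treated with compound for 48 hours. Definition used: TGI = concentration required for complete inhibition of growth.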

Key:
Assay in all cases: inhibition of tumour cell growth, NCI panel, 48 h
COLO 205 colon = test system: COLO 205 colon
NCI/ADR-RES ovarian = test system: NCI/ADR-RES ovarian
SN12C renal = test system: SN12C renal
SF-295 CNS = test system: SF-295 CNS
EKVX NSCLC = test system: EKVX NSCLC
OVCAR-5 ovarian = test system: OVCAR-5 ovarian
HOP-62 NSCLC = test system: HOP-62 NSCLC
T-47D breast = test system: T-47D breast
TK-10 renal = test system: TK-10 renal
SW-620 colon = test system: SW-620 colon
HCT-15 colon = test system: HCT-15 colon
K-562 leukemia = test system: K-562 leukemia
HL-60(TB) leukemia = test system: HL-60(TB) leukemia
ACHN renal = test system: ACHN renal
UO-31 renal = test system: UO-31 renal
SF-268 CNS = test system: SF-268 CNS
CCRF-CEM leukemia = test system: CCRF-CEM leukemia
HT29 colon = test system: HT29 colon
HCC-2998 colon = test system: HCC-2998 colon
MCF7 breast = test system: MCF7 breast
MDA-N = test system: MDA-N
HCT-116 colon = test system: HCT-116 colon
MDA-MB-231 breast = test system: MDA-MB-231 breast
SNB-19 CNS = test system: SNB-19 CNS
OVCAR-8 ovarian = test system: OVCAR-8 ovarian
SR leukemia = test system: SR leukemia
A549 NSCLC = test system: A549 NSCLC
SK-OV-3 ovarian = test system: SK-OV-3 ovarian
OVCAR-4 ovarian = test system: OVCAR-4 ovarian
MDA-MB-435 = test system: MDA-MB-435
RPMI-8226 leukemia = test system: RPMI-8226 leukemia
NCI-H460 lung = test system: NCI-H460 lung
NCI-H522 lung = test system: NCI-H522 lung
786-0 renal = test system: 786-0 renal
SK-MEL-28 melanoma = test system: SK-MEL-28 melanoma
SNB-75 CNS = test system: SNB-75 CNS
SF-539 CNS = test system: SF-539 CNS
HS 578T breast = test system: HS 578T breast
SK-MEL-5 melanoma = test system: SK-MEL-5 melanoma
IGROV1 ovarian = test system: IGROV1 ovarian
PC-3 prostate = test system: PC-3 prostate
UACC-257 melanoma = test system: UACC-257 melanoma
MOLT-4 leukemia = test system: MOLT-4 leukemia
KM12 colon = test system: KM12 colon
M14 melanoma = test system: M14 melanoma
U251 CNS = test system: U251 CNS
LOX IMVI melanoma = test system: LOX IMVI melanoma
UACC-62 melanoma = test system: UACC-62 melanoma
SK-MEL-2 melanoma = test system: SK-MEL-2 melanoma
NCI-H226 lung = test system: NCI-H226 lung
RXF 393 renal = test system: RXF 393 renal
MALME-3M melanoma = test system: MALME-3M melanoma
HOP-92 NSCLC = test system: HOP-92 NSCLC
A498 renal = test system: A498 renal
DU-145 prostate = test system: DU-145 prostate
OVCAR-3 ovarian = test system: OVCAR-3 ovarian
NCI-H23 lung = test system: NCI-H23 lung
CAKI-1 renal = test system: CAKI-1 renal

Cc1c(C(=O)C(=O)c2ccccc2)c(C)c(C(=O)C(=O)c2ccccc2)c(C)c1C(=O)C(=O)c1ccccc1
TGI (COLO 205 colon): > 100 µM | TGI (NCI/ADR-RES ovarian): > 100 µM | TGI (SN12C renal): > 100 µM | TGI (SF-295 CNS): > 100 µM | TGI (EKVX NSCLC): > 100 µM | TGI (OVCAR-5 ovarian): > 100 µM | TGI (HOP-62 NSCLC): > 100 µM | TGI (T-47D breast): > 100 µM | TGI (TK-10 renal): > 100 µM | TGI (SW-620 colon): > 100 µM | TGI (HCT-15 colon): > 100 µM | TGI (K-562 leukemia): > 100 µM | TGI (HL-60(TB) leukemia): > 100 µM | TGI (ACHN renal): > 100 µM | TGI (UO-31 renal): > 100 µM | TGI (SF-268 CNS): > 100 µM | TGI (CCRF-CEM leukemia): > 100 µM | TGI (HT29 colon): > 100 µM | TGI (HCC-2998 colon): > 100 µM | TGI (MCF7 breast): > 100 µM | TGI (MDA-N): > 100 µM | TGI (HCT-116 colon): > 100 µM | TGI (MDA-MB-231 breast): > 100 µM | TGI (SNB-19 CNS): > 100 µM | TGI (OVCAR-8 ovarian): > 100 µM | TGI (SR leukemia): > 100 µM | TGI (A549 NSCLC): > 100 µM | TGI (SK-OV-3 ovarian): > 100 µM | TGI (OVCAR-4 ovarian): > 100 µM | TGI (MDA-MB-435): > 100 µM | TGI (RPMI-8226 leukemia): > 100 µM | TGI (NCI-H460 lung): > 100 µM | TGI (NCI-H522 lung): > 100 µM | TGI (786-0 renal): > 100 µM | TGI (SK-MEL-28 melanoma): > 100 µM | TGI (SNB-75 CNS): > 100 µM | TGI (SF-539 CNS): > 100 µM | TGI (HS 578T breast): > 100 µM | TGI (SK-MEL-5 melanoma): > 100 µM | TGI (IGROV1 ovarian): > 100 µM | TGI (PC-3 prostate): > 100 µM | TGI (UACC-257 melanoma): > 100 µM | TGI (MOLT-4 leukemia): > 100 µM | TGI (KM12 colon): > 100 µM | TGI (M14 melanoma): > 100 µM | TGI (U251 CNS): > 100 µM

CC1=C(C#N)C2C(=C(C)N1)C(N)=Nc1ccccc12 (centres undefined)
TGI (COLO 205 colon): > 100 µM | TGI (NCI/ADR-RES ovarian): > 100 µM | TGI (SN12C renal): > 100 µM | TGI (SF-295 CNS): > 100 µM | TGI (EKVX NSCLC): 89.4 µM | TGI (LOX IMVI melanoma): > 100 µM | TGI (OVCAR-5 ovarian): > 100 µM | TGI (HOP-62 NSCLC): > 100 µM | TGI (T-47D breast): > 100 µM | TGI (TK-10 renal): > 100 µM | TGI (SW-620 colon): > 100 µM | TGI (HCT-15 colon): > 100 µM | TGI (HL-60(TB) leukemia): 81.6 µM | TGI (ACHN renal): > 100 µM | TGI (UACC-62 melanoma): > 100 µM | TGI (SF-268 CNS): > 100 µM | TGI (CCRF-CEM leukemia): > 100 µM | TGI (HT29 colon): > 100 µM | TGI (SK-MEL-2 melanoma): > 100 µM | TGI (NCI-H226 lung): 93.8 µM | TGI (RXF 393 renal): > 100 µM | TGI (HCC-2998 colon): > 100 µM | TGI (MCF7 breast): > 100 µM | TGI (MDA-N): > 100 µM | TGI (MALME-3M melanoma): > 100 µM | TGI (HOP-92 NSCLC): 62.2 µM | TGI (HCT-116 colon): > 100 µM | TGI (MDA-MB-231 breast): > 100 µM | TGI (SNB-19 CNS): > 100 µM | TGI (OVCAR-8 ovarian): > 100 µM | TGI (SR leukemia): > 100 µM | TGI (A549 NSCLC): > 100 µM | TGI (SK-OV-3 ovarian): > 100 µM | TGI (OVCAR-4 ovarian): > 100 µM | TGI (A498 renal): 97.8 µM | TGI (DU-145 prostate): > 100 µM | TGI (OVCAR-3 ovarian): > 100 µM | TGI (NCI-H23 lung): > 100 µM | TGI (NCI-H460 lung): > 100 µM | TGI (NCI-H522 lung): > 100 µM | TGI (786-0 renal): > 100 µM | TGI (SK-MEL-28 melanoma): > 100 µM | TGI (SNB-75 CNS): 44.1 µM | TGI (SF-539 CNS): > 100 µM | TGI (HS 578T breast): 74.7 µM | TGI (SK-MEL-5 melanoma): > 100 µM | TGI (IGROV1 ovarian): 95.6 µM | TGI (PC-3 prostate): 70.8 µM | TGI (UACC-257 melanoma): > 100 µM | TGI (MOLT-4 leukemia): > 100 µM | TGI (KM12 colon): > 100 µM | TGI (M14 melanoma): > 100 µM | TGI (CAKI-1 renal): > 100 µM
